Assay results published in the OPERA property sets (Mansouri et al. 2018).

## c1ccc2c(c1)ccc1c3ccsc3ccc21
  logP: 5.35

## Cc1cccc2sccc12
  logP: 3.57

## c1ccc2c(c1)ccc1sc3ccccc3c12
  logP: 5.19

## Cc1cccc2ccsc12
  logP: 3.85

## c1ccc2cc3sccc3cc2c1
  logP: 4.5

## Cc1cc2ccccc2s1
  logP: 3.71

## c1cc2ccc3cccc4sc(c1)c2c34
  logP: 4.95

## O=S1C=Cc2ccccc21 (stereo not given)
  logP: 1.01

## c1ccc2c(c1)ccc1ccsc12
  logP: 4.55

## c1ccc2c(c1)ccc1sccc12
  logP: 4.41
